Experimental data: patent US20090221621A1, “Methods of Reducing Alcohol-Induced Dose Dumping for Opioid Sustained Release Oral Dosage Forms” (priority 2005, published 2009)

Assay: Release test of matrix tablets, USP Type VII, 40% EtOH/water 0-4 hrs then water vs water only (Examples 9-11)
Type: physicochemical
Settings: oxycodone HCl and hydromorphone HCl 30 mg tablets with vs without stearyl alcohol, FIGS. 12 and 13
Protocol: Ten grams each of formulations with and without stearyl alcohol were prepared via wet granulation technique. The amounts set forth in Tables 5 and 6 of oxycodone hydrochloride, lactose and Eudragit® RS PO were combined in an appropriate vessel and blended for 5 minutes. The powder mixture was granulated with water until a moist mass was produced. The wet mass was then passed through a 16-mesh size screen and was allowed to dry overnight at ambient conditions. In a small vessel, the required amount of stearyl alcohol (a stiffening agent) was melted over a water bath. Keeping the molten stearyl alcohol in the water bath, the desired amount of dried granules were added and mixed until the granules were sufficiently coated with the molten stearyl alcohol. The mixture was removed from the water bath and allowed to cool at ambient conditions before sizing through a 16-mesh screen. Talc and magnesium stearate were added to the coated granules and blended using a suitable blender. The granules were then compressed to 375 mg tablets using an appropriate tabletting machine, such as a Carver press. For granules that were not coated with stearyl alcohol, granules were compressed to 300 mg tablets.
The same manufacturing procedure as Example 7 was used, with the substitution of hydromorphone HCl instead of oxycodone HCl.
Samples for this test came from Examples 7 and 8. […]

Compound: CCCCCCCCCCCCCCCCCCO [Stearyl alcohol, stearyl alcohol]
- Effect of the excipient on ethanol effect on opioid release functionality: suppressed ethanol effect on opioid functionality
